The subject of this assay is corpus cavernosal strips (CCS). Kind of assay: cGMP production in CCS (penile organ culture) in response to adenosine. The assay is classed as cell-based, mouse. As for the experimental part:
FIG. 18. Adenosine stimulated both cAMP and cGMP induction in corpus cavernosal smooth muscle cells (CCSM) via A2BR activation. (a) Adenosine receptor expression profile in purified primary CCSM. CCSM were purified from adult mouse penes. […] (b) CCSM were isolated and cultured from mouse penes. The cells were switched to serum-free medium and treated with different concentrations of adenosine with or without A2BR antagonist (MRS1706-10 μM), A2AR antagonist (ZM241385-50 nM) or A2AR agonist (CGS-21680-10 μM) alone for 10 min. Then cellular extracts were collected and cAMP levels were measured using an ELISA kit. […] After 10 min treatment, the cellular extracts were collected and cAMP levels were measured by using a commercial enzyme immunoassay kit (Amersham Pharmacia). […] 10 min after treatment, cellular extracts were collected and cGMP levels were measured by using a commercial enzyme immunoassay kit (Amersham Pharmacia). Data are expressed as mean±SE. *p<0.05, adenosine treated versus the control; **p<0.05, adenosine treated with MRS1706 versus the adenosine treated; ***p<0.05, CCS of A2BR-deficient mice treated with adenosine versus the CCS of wild type mice treated with adenosine. […] After 10 min treatment, the cellular extracts were collected and cAMP levels were measured by using a commercial enzyme immunoassay kit (Amersham Pharmacia). […]

In patent US20100254965A1, “Adenosine Signaling in Diagnosis, Treatment, and Prevention of Priapism and Erectile Dysfunction” (BOARD OF REGENTS ,THE UNIVERSITY OF TEXAS SYSTEM, priority 2006, published 2010) one finds cGMP production data, which are given here for one compound.

“Also recorded” adds a separate entry of the source.

In the case of `Nc1ncnc2c1ncn2[C@@H]1O[C@H](CO)[C@@H](O)[C@H]1O` [adenosine], the cGMP production result is, setting by setting: (CCS of A2BR-deficient mice) “absent”; (wild type penile organ culture (CCS)) “can increase cGMP production; also recorded: induced by adenosine in a dosage-dependent manner”.
